Source: patent US20100056526A1, “HETEROMONOCYCLIC COMPOUND AND USE THEREOF” (Takeda Pharmaceutical Company Limited, priority 2006, published 2010)

Tests used:
PPARγ = target: T1, PPARγ (Homo sapiens, UniProt P37231); assay: Evaluation of PPARγ activating action (luciferase reporter in PPARγ:RXRα:4ERPP/CHO-K1 cells); type: cell-based; conditions: CHO-K1, 24 h; test compound 10^−6 M; luciferase activity relative to control compound X (1 μM) = 100%, non-administration group = 0%; read-out: PPARγ activating action (activation % (10^−6 M))
T1 construct: expressed in transfected cells; host or cells: CHO-K1
T1 sequence (P37231 1-477 isoform P37231-2): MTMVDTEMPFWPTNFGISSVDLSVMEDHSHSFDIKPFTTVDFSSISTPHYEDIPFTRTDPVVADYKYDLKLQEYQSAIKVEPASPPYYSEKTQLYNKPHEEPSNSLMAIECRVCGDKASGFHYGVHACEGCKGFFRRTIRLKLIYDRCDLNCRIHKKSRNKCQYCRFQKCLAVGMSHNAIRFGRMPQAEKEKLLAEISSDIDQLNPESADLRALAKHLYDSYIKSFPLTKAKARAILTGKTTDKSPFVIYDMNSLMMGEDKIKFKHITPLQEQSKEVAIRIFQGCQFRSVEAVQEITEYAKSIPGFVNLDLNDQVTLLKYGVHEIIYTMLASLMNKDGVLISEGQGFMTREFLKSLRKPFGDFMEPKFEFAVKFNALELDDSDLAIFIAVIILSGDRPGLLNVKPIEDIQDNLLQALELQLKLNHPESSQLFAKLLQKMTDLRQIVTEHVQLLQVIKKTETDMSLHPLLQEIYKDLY
T1 sequence (P19793 1-462 partner): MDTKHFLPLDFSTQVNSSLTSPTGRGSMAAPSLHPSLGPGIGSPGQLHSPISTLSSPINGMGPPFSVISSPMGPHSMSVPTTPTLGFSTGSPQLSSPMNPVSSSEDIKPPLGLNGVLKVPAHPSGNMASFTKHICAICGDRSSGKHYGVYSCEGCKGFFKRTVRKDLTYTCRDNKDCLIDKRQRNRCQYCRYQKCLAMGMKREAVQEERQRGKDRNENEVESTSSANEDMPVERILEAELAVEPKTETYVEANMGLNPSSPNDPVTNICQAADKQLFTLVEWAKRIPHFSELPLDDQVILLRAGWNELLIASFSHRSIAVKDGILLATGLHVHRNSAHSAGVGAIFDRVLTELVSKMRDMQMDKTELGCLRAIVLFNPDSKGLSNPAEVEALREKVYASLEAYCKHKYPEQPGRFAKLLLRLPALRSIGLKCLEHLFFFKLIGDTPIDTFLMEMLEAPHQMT
How it was run: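 Activity is expressed as percent, where vehicle gives 0% and 1 μM compound X gives 100%, based on luciferase luminescence. Reporter CHO-K1 cells co-expressing PPARγ:RXRα with a 4ERPP-driven luciferase were incubated with test compound for one day at 37 °C in medium with 0.1% fatty acid-free BSA.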

human AT1 receptor = target: T2, human AT1 receptor (Homo sapiens, UniProt P30556); assay: Binding assay using human AT1 receptor-expressing CHO-K1 cell membrane fraction ([125I]-angiotensin II); conditions: 22.5 pM [125I]-angiotensin II, 9 μg AT1 membrane, 1 hr room temperature; read-out: AT1 receptor binding inhibitory action (IC50 (nM))
T2 construct: expressed in transfected cells; host or cells: CHO-K1
T2 sequence (P30556 1-359): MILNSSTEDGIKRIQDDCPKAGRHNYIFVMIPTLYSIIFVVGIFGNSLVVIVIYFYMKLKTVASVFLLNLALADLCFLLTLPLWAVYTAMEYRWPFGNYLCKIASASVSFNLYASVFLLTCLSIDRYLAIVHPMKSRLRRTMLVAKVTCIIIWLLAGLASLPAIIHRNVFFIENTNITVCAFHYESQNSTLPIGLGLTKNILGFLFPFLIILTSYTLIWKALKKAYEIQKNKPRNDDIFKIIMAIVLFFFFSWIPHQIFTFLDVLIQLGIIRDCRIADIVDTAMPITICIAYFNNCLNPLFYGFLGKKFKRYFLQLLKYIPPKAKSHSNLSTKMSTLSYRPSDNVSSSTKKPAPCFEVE
How it was run: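 Radioligand displacement: test compound competed with [125I]-angiotensin II (22.5 pM) on stable CHO-K1 AT1 membrane fraction, 1 hr, room temperature, Tris pH 7.4/MgCl2 buffer ± 0.3 mg/mL BSA. Filtration then scintillation counting; 1 μM CV-11974 defined nonspecific binding. Values are IC50s.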

Structure (SMILES) | activation at 1 µM (PPARγ) [%] | IC50 (human AT1 receptor) [nM]
CCCc1nc(CC)n(-c2ccc(OC(C)C)cc2)c(=O)c1Cc1ccc(-c2ccccc2-c2noc(=O)[nH]2)cc1 [Example 362, 2-ethyl-3-(4-isopropoxyphenyl)-5-{[2′-(5-oxo-4,5-dihydro-1,2,4-oxadiazol-3-yl)biphenyl-4-yl]methyl}-6-propylpyrimidin-4(3H)-one] | 58.7 | 2.4
CCCCc1nc(C)n(Cc2ccc(OC)nc2)c(=O)c1Cc1ccc(-c2ccccc2-c2noc(=O)[nH]2)cc1 [Example 71, 6-butyl-3-[(6-methoxypyridin-3-yl)methyl]-2-methyl-5-{[2′-(5-oxo-4,5-dihydro-1,2,4-oxadiazol-3-yl)biphenyl-4-yl]methyl}pyrimidin-4(3H)-one] | 46.3 | 1.8
CCCc1nc(CC)c(-c2ccc(OC)cc2)c(=O)n1Cc1ccc(-c2ccccc2-c2noc(O)n2)cc1 [Example 456, 6-ethyl-5-(4-methoxyphenyl)-3-{[2′-(5-oxo-4,5-dihydro-1,2,4-oxadiazol-3-yl)biphenyl-4-yl]methyl}-2-propylpyrimidin-4(3H)-one] | 30 | 1.8
CCCc1nc(C)n(-c2ccc(OC(C)C)cc2)c(=O)c1Cc1ccc(-c2ccccc2-c2noc(O)n2)cc1 [Example 88, 3-(4-isopropoxyphenyl)-2-methyl-5-{[2′-(5-oxo-4,5-dihydro-1,2,4-oxadiazol-3-yl)biphenyl-4-yl]methyl}-6-propylpyrimidin-4(3H)-one] | 31.2 | 1.7
CCCc1nc(C)n(-c2cc(F)c3c(c2)CC(C)(C)O3)c(=O)c1Cc1ccc(-c2ccccc2-c2noc(=O)[nH]2)cc1 [Example 275, 3-(7-fluoro-2,2-dimethyl-2,3-dihydro-1-benzofuran-5-yl)-2-methyl-5-{[2′-(5-oxo-4,5-dihydro-1,2,4-oxadiazol-3-yl)biphenyl-4-yl]methyl}-6-propylpyrimidin-4(3H)-one] | 17 | 1.8
CCCc1nc(OC)n(-c2ccc(OC(C)(C)C)cc2)c(=O)c1Cc1ccc(-c2ccccc2-c2noc(O)n2)cc1 [Example 369, 3-(4-tert-butoxyphenyl)-2-methoxy-5-{[2′-(5-oxo-4,5-dihydro-1,2,4-oxadiazol-3-yl)biphenyl-4-yl]methyl}-6-propylpyrimidin-4(3H)-one] | 36.3 | 1.9
CCCc1nc(CC)n(-c2ccc(OC(C)(C)COC)cc2)c(=O)c1Cc1ccc(-c2ccccc2-c2noc(=O)[nH]2)cc1 [Example 376, 2-ethyl-3-[4-(2-methoxy-1,1-dimethylethoxy)phenyl]-5-{[2′-(5-oxo-4,5-dihydro-1,2,4-oxadiazol-3-yl)biphenyl-4-yl]methyl}-6-propylpyrimidin-4(3H)-one] | 22 | 1.7
CCCCc1nc(C)n(-c2ccc3c(c2)CC(C)(C)O3)c(=O)c1Cc1ccc(-c2ccccc2-c2nsc(=O)[nH]2)cc1 [Example 128, 6-butyl-3-(2,2-dimethyl-2,3-dihydro-1-benzofuran-5-yl)-2-methyl-5-{[2′-(5-oxo-4,5-dihydro-1,2,4-thiadiazol-3-yl)biphenyl-4-yl]methyl}pyrimidin-4(3H)-one] | 24.3 | 1.9
CCCc1nc(C)n(-c2ccc3c(c2)C=CC(C)(C)O3)c(=O)c1Cc1ccc(-c2ccccc2-c2noc(=O)[nH]2)cc1 [Example 142, 3-(2,2-dimethyl-2H-chromen-6-yl)-2-methyl-5-{[2′-(5-oxo-4,5-dihydro-1,2,4-oxadiazol-3-yl)biphenyl-4-yl]methyl}-6-propylpyrimidin-4(3H)-one] | 32.8 | 1.7
CCCc1nc(OC)n(-c2ccc(OC(C)C)cc2)c(=O)c1Cc1ccc(-c2ccccc2-c2noc(O)n2)cc1 [Example 368, 3-(4-isopropoxyphenyl)-2-methoxy-5-{[2′-(5-oxo-4,5-dihydro-1,2,4-oxadiazol-3-yl)biphenyl-4-yl]methyl}-6-propylpyrimidin-4(3H)-one] | 50.2 | 2
CCCc1nc(C)n(-c2ccc(OC(C)C)cc2)c(=O)c1Cc1ccc(-c2ccccc2-c2noc(=O)[nH]2)c(OC)c1 [Example 400, 3-(4-isopropoxyphenyl)-5-{[2-methoxy-2′-(5-oxo-4,5-dihydro-1,2,4-oxadiazol-3-yl)biphenyl-4-yl]methyl}-2-methyl-6-propylpyrimidin-4(3H)-one] | 21.3 | 2.8

Now from value to molecule:

activation at 1 µM (PPARγ) [%] | IC50 (human AT1 receptor) [nM] | Structure (SMILES)
34.3 | 1.7 | CCCCc1nc(C)n(Cc2ccccn2)c(=O)c1Cc1ccc(-c2ccccc2-c2noc(=O)[nH]2)cc1 [Example 50, 6-butyl-2-methyl-5-{[2′-(5-oxo-4,5-dihydro-1,2,4-oxadiazol-3-yl)biphenyl-4-yl]methyl}-3-(pyridin-2-ylmethyl)pyrimidin-4(3H)-one]
29.3 | 1.3 | CCCCc1nc(C)n(-c2ccc(OCC)cc2)c(=O)c1Cc1ccc(-c2ccccc2-c2noc(=O)[nH]2)cc1 [Example 222, 6-butyl-3-(4-ethoxyphenyl)-2-methyl-5-{[2′-(5-oxo-4,5-dihydro-1,2,4-oxadiazol-3-yl)biphenyl-4-yl]methyl}pyrimidin-4(3H)-one]
27.8 | 1.7 | CCCc1nc(C)n(-c2ccc(OC3CC3)cc2)c(=O)c1Cc1ccc(-c2ccccc2-c2noc(=O)[nH]2)cc1 [Example 265, 3-[4-(cyclopropyloxy)phenyl]-2-methyl-5-{[2′-(5-oxo-4,5-dihydro-1,2,4-oxadiazol-3-yl)biphenyl-4-yl]methyl}-6-propylpyrimidin-4(3H)-one]
26.8 | 1.1 | CCCCc1nc(C)n(-c2cccc(C(C)(C)O)c2)c(=O)c1Cc1ccc(-c2ccccc2-c2noc(=O)[nH]2)cc1 [Example 217, 6-butyl-3-[3-(1-hydroxy-1-methylethyl)phenyl]-2-methyl-5-{[2′-(5-oxo-4,5-dihydro-1,2,4-oxadiazol-3-yl)biphenyl-4-yl]methyl}pyrimidin-4(3H)-one]
18.1 | 1 | CCCc1nc(C)n(-c2ccc(OC3CCCC(=O)CC3)cc2)c(=O)c1Cc1ccc(-c2ccccc2-c2noc(=O)[nH]2)cc1 (stereo not drawn) [Example 437, 2-methyl-3-{4-[(4-oxocycloheptyl)oxy]phenyl}-5-{[2′-(5-oxo-4,5-dihydro-1,2,4-oxadiazol-3-yl)biphenyl-4-yl]methyl}-6-propylpyrimidin-4(3H)-one]
19.9 | 1.2 | CCCc1nc(CC)n(-c2ccc(OC3(CO)CCCC3)cc2)c(=O)c1Cc1ccc(-c2ccccc2-c2noc(=O)[nH]2)cc1 [Example 390, 2-ethyl-3-(4-{[1-(hydroxymethyl)cyclopentyl]oxy}phenyl)-5-{[2′-(5-oxo-4,5-dihydro-1,2,4-oxadiazol-3-yl)biphenyl-4-yl]methyl}-6-propylpyrimidin-4(3H)-one]
20.3 | 1.3 | CCCc1nc(CC)c(-c2ccc(OC(C)(C)CO)cc2)c(=O)n1Cc1ccc(-c2ccccc2-c2noc(O)n2)cc1 [Example 512, 6-ethyl-5-[4-(2-hydroxy-1,1-dimethylethoxy)phenyl]-3-{[2′-(5-oxo-4,5-dihydro-1,2,4-oxadiazol-3-yl)biphenyl-4-yl]methyl}-2-propylpyrimidin-4(3H)-one]
